# Data from patent US20090325959A1 (priority 2008, published 2009).
# pKi: −log10 of the molar value. Read-outs that look alike come from different tables or passages of the source.
# Legend:
# ROCK2 = target: T1, ROCK2 (Homo sapiens, UniProt O75116); assay: Rho kinase inhibition assay (IMAP fluorescence polarization), ROCK2; type: biochemical;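 further: kinase reaction started with 10 µM ATP and run 60 min at room temperature, then phosphorylated substrate captured on IMAP beads for 30 min and fluorescence polarization read in mP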
# T1 construct: purchased Upstate/Chemicon 14-451
# T1 sequence (O75116 11-552 limits assumed): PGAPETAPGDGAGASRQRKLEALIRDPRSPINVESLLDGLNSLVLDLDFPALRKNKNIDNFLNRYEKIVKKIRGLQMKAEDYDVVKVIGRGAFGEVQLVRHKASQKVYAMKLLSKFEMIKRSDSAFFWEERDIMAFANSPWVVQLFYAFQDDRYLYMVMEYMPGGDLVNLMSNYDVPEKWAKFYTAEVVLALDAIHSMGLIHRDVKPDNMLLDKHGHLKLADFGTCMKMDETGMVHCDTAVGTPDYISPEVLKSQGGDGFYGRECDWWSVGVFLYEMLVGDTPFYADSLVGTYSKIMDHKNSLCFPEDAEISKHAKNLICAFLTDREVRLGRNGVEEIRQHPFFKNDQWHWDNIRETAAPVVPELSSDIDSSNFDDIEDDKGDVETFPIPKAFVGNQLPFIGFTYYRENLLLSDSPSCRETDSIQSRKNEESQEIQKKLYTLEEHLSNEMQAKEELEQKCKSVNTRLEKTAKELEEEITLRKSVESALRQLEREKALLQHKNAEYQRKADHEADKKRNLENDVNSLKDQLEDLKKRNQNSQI
# Procedure: (§1) Following the pre-incubation, 10 μM ATP was added to initiate the reaction. After 60 minutes at room temperature, Molecular Devices IMAP™ binding solution was added to bind phosphorylated substrate. After 30 minutes of incubation in the presence of the IMAP™ beads, the fluorescence polarization was read and the ratio was reported as mP. IC50 values for compounds and EC50 values for ATP were calculated using the Prism software from Graphpad.
# ROCK1 = target: T2, ROCK1 (Homo sapiens, UniProt Q13464); assay: Rho kinase inhibition assay (IMAP fluorescence polarization), ROCK1; type: biochemical;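 further: kinase reaction run 60 min at room temperature, then phosphorylated substrate captured on IMAP beads for 30 min, with fluorescence polarization read in mP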
# T2 construct: purchased Upstate/Chemicon 14-601
# T2 sequence (Q13464 17-535 limits assumed): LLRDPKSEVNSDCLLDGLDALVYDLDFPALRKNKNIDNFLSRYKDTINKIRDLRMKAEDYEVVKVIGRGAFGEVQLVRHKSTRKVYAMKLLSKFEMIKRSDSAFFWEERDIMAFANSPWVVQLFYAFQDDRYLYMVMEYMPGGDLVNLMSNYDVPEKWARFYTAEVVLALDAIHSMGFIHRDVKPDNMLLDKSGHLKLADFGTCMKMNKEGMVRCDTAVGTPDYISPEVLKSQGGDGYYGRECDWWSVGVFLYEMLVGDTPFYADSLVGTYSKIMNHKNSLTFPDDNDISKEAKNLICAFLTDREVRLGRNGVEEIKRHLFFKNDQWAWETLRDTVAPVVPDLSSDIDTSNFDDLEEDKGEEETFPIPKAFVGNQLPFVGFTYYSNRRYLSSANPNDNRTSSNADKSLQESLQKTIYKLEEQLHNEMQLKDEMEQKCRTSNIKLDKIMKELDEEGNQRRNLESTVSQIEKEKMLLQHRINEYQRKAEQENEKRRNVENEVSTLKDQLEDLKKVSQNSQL
# Procedure: as §1
# [1] = 10 μM ATP, read-out: ROCK2 Ki, Avg
SMILES,pKi (ROCK2; [1]),"pKi (ROCK1; Avg, 10 μM ATP)","pKi (ROCK2; average Ki, read-out: ROCK2 Ki)",pKi (ROCK1; average Ki)
"c1cc(CN2CCC[C@@H](Nc3ccc4[nH]ncc4c3)C2)cc(-c2ccco2)c1 [Compound 1.250, (R)-N-(1-(3-(furan-2-yl)benzyl)piperidin-3-yl)-1H-indazol-5-amine]",7.34,6.61,–,–
"Cc1ccc(CN2CC[C@@H](Nc3cccc4c(=O)[nH]ccc34)C2)cc1OCCO [Compound 2.093, (R)-5-(1-(3-(2-hydroxyethoxy)-4-methylbenzyl)pyrrolidin-3-ylamino)isoquinolin-1(2H)-one]",6.89,6.24,–,–
"c1cc(N[C@@H]2CCN(Cc3ccncn3)C2)c2ccncc2c1 [Compound 2.083, (R)-N-(1-(pyrimidin-4-ylmethyl)pyrrolidin-3-yl)isoquinolin-5-amine]",6.07,5.73,–,–
"CCOC(=O)c1ccc(CN2CCC[C@@H](Nc3ccc4[nH]ncc4c3)C2)cc1 [Compound 1.209, (R)-ethyl 4-((3-(1H-indazol-5-ylamino)piperidin-1-yl)methyl)benzoate]",6.33,5.34,–,–
"Clc1ccc(CN2CCC[C@@H](Nc3ccc4[nH]ncc4c3)C2)cc1Cl [Compound 1.144, (R)-N-(1-(3,4-dichlorobenzyl)piperidin-3-yl)-1H-indazol-5-amine]",7.71,7.01,–,–
"CS(=O)(=O)N1CCCc2cc(CN3CCC[C@H](Nc4ccc5[nH]ncc5c4)C3)ccc21 [Compound 1.272, (S)-N-(1-((1-(methylsulfonyl)-1,2,3,4-tetrahydroquinolin-6-yl)methyl)piperidin-3-yl)-1H-indazol-5-amine]",6.71,5.74,–,–
"c1c[nH]c(CN2CCC[C@H](Nc3ccc4[nH]ncc4c3)C2)n1 [Compound 1.256, (S)-N-(1-((1H-imidazol-2-yl)methyl)piperidin-3-yl)-1H-indazol-5-amine]",7.07,6.15,–,–
"CCSc1ccc(CN2CCC[C@H](Nc3ccc4[nH]ncc4c3)C2)cc1 [Compound 1.168, (S)-N-(1-(4-(ethylthio)benzyl)piperidin-3-yl)-1H-indazol-5-amine]",7.64,6.79,–,–
"OC[C@@H](O)COc1cccc(CN2CCC[C@H](Nc3ccc4[nH]ncc4c3)C2)c1 [Compound 1.117, (R)-3-(3-(((S)-3-(1H-indazol-5-ylamino)piperidin-1-yl)methyl)phenoxy)propane-1,2-diol]",7.45,6.68,–,–
"O=C(Nc1cccc(CN2CCC[C@@H](Nc3ccc4[nH]ncc4c3)C2)c1)N1CCCC1 [Compound 1.266, (R)-N-(3-((3-(1H-indazol-5-ylamino)piperidin-1-yl)methyl)phenyl)pyrrolidine-1-carboxamide]",7.77,7.27,–,–
"CS(=O)(=O)Nc1cccc(CN2CC[C@H](Nc3ccc4[nH]ncc4c3)C2)c1 [Compound 1.095, (S)-N-(3-((3-(1H-indazol-5-ylamino)pyrrolidin-1-yl)methyl)phenyl)methanesulfonamide]",7.31,6.56,–,–
"CC(=O)NCCOc1cccc(CN2CCC[C@H](Nc3ccc4[nH]ncc4c3)C2)c1 [Compound 1.218, (S)-N-(2-(3-((3-(1H-indazol-5-ylamino)piperidin-1-yl)methyl)phenoxy)ethyl)acetamide]",7.51,6.40,–,–
"OCCOc1cc(CN2CC[C@@H](Nc3cccc4cnccc34)C2)ccc1F [Compound 2.068, (R)-2-(2-fluoro-5-((3-(isoquinolin-5-ylamino)pyrrolidin-1-yl)methyl)phenoxy)ethanol]",8.24,8.10,8.24,8.10
"Cn1c(CN2CC[C@@H](Nc3cccc4cnccc34)C2)nc2ccccc21 [Compound 2.075, (R)-N-(1-((1-methyl-1H-benzo[d]imidazol-2-yl)methyl)pyrrolidin-3-yl)isoquinolin-5-amine]",7.66,6.91,–,–
"CC(=O)NCCOc1cccc(CN2CCC[C@@H](Nc3ccc4[nH]ncc4c3)C2)c1 [Compound 1.211, (R)-N-(2-(3-((3-(1H-indazol-5-ylamino)piperidin-1-yl)methyl)phenoxy)ethyl)acetamide]",7.24,6.40,–,–
Cc1ccc(CN2CC[C@@H](Nc3cccc4cnccc34)C2)cc1NS(C)(=O)=O [Compound 2.076],8.62,8.10,8.62,8.10
"OCCCOc1cccc(CN2CCC[C@@H](Nc3ccc4[nH]ncc4c3)C2)c1 [Compound 1.231, (R)-3-(3-((3-(1H-indazol-5-ylamino)piperidin-1-yl)methyl)phenoxy)propan-1-ol]",7.22,6.52,–,–
"Cc1nc(CN2CC[C@@H](Nc3cccc4cnccc34)C2)c(C)o1 [Compound 2.091, (R)-N-(1-((2,5-dimethyloxazol-4-yl)methyl)pyrrolidin-3-yl)isoquinolin-5-amine]",6.63,6.11,–,–
"CC(CN1CCC[C@@H](Nc2ccc3[nH]ncc3c2)C1)c1ccccc1 (stereo partly drawn) [Compound 1.251, N-((3R)-1-(2-phenylpropyl)piperidin-3-yl)-1H-indazol-5-amine]",7.31,6.68,–,–
"c1cc(CN2CCC[C@@H](Nc3ccc4[nH]ncc4c3)C2)cc(C2CC2)c1 [Compound 1.202, (R)-N-(1-(3-cyclopropylbenzyl)piperidin-3-yl)-1H-indazol-5-amine]",7.48,6.69,–,–
"FC(F)(F)c1cccc(CN2CCC[C@H](Nc3ccc4[nH]ncc4c3)C2)c1 [Compound 1.169, (S)-N-(1-(3-(trifluoromethyl)benzyl)piperidin-3-yl)-1H-indazol-5-amine]",7.47,6.59,–,–
"C[C@@H](O)COc1cccc(CN2CCC[C@H](Nc3ccc4[nH]ncc4c3)C2)c1 [Compound 1.118, (R)-1-(3-(((S)-3-(1H-indazol-5-ylamino)piperidin-1-yl)methyl)phenoxy)propan-2-ol]",7.09,6.34,–,–
"CNC(=O)Nc1cccc(CN2CCC[C@@H](Nc3ccc4[nH]ncc4c3)C2)c1 [Compound 1.265, (R)-1-(3-((3-(1H-indazol-5-ylamino)piperidin-1-yl)methyl)phenyl)-3-methylurea]",7.67,6.79,–,–
"Cc1c(CN2CCC[C@H](Nc3ccc4[nH]ncc4c3)C2)cccc1NS(C)(=O)=O [Compound 1.274, (S)-N-(3-((3-(1H-indazol-5-ylamino)piperidin-1-yl)methyl)-2-methylphenyl)methanesulfonamide]",7.97,6.65,–,–
"Brc1cccc(CN2CCC[C@@H](Nc3ccc4[nH]ncc4c3)C2)c1 [Compound 1.210, (R)-N-(1-(3-bromobenzyl)piperidin-3-yl)-1H-indazol-5-amine]",7.59,7.02,–,–
"[O-][n+]1ccc2c(N[C@@H]3CCN(Cc4cccc(OCCO)c4)C3)cccc2c1 [Compound 2.081, (R)-5-(1-(3-(2-hydroxyethoxy)benzyl)pyrrolidin-3-ylamino)isoquinoline 2-oxide]",5.95,5.84,–,–
"CS(=O)(=O)Nc1cccc(CN2CCC[C@H](Nc3cccc4cnccc34)C2)c1 [Compound 2.037, (S)-N-(3-((3-(isoquinolin-5-ylamino)piperidin-1-yl)methyl)phenyl)methanesulfonamide]",6.74,6.04,–,–
"Clc1ccc(CN2CC[C@@H](Nc3ccc4[nH]ncc4c3)C2)cc1Cl [Compound 1.254, (R)-N-(1-(3,4-dichlorobenzyl)pyrrolidin-3-yl)-1H-indazol-5-amine]",7.41,6.94,–,–
